Assay results: patent US20130171091A1, “Nanocell Drug Delivery System” (Massachusetts Institute of Technology, priority 2004, published 2013)

Assays:
Assay type in all cases: cell-based
[1] = tested on: B16/F10 melanoma cells and human umbilical vein endothelial cells; experiment: Effect of VEGF and HGF on tumor angiogenesis in vitro, co-culture on matrigel; conditions: growth factor added to co-culture on matrigel
Description: Protocol: For setting up the system, human umbilical vein endothelial cells, pooled from three donors, were purchased from Cambrex, and used between passages 3-6. The cells were grown in endothelial basal medium supplemented with 20% fetal bovine serum (FBS) and bulletkit-2 (Sengupta et al. Cancer Res. 63 (23):8351-59, Dec. 1, 2003). For the tumor component, we used B16/F10 melanoma cells as the model cell line, which were stably transfected to express green fluorescent protein. Plasmid expressing enhanced green fluorescent protein (pEGFP-C2, Clontech) was linearized and lipofected (Lipofectamine 2000, Invitrogen) into B16-F10 cells. The stably integrated clones of B16-F10 cells were selected by 800 μg/ml G418. The green fluorescence of the G418 resistant clones was further confirmed by Flow Cytometry and epifluorescence microscopy. The GFP-B16/F10 cells were regularly cultured in DMEM supplemented with 5% FBS. […] The coverslips were mounted with antifade, and analysed with a LSM510 Zeiss confocal microscope. […] Quantification of the area covered by the endothelial cells or GFP-BL6/F10 cells was carried out using a planimetric point-count method using a 224-intersection point square reticulum. Data were expressed as the ratio of each component to the total area covered by cells. […]

[2] = tested on: B16/F10 melanoma cells and human umbilical vein endothelial cells; experiment: VEGF-induced response in co-culture assay on matrigel; design: VEGF-induced endothelial network: dose or concentration left out as unconfirmed; conditions: for effect on tumor cells: Doxorubicin 10-50 μM
Description: (§1) Protocol: For setting up the system, human umbilical vein endothelial cells, pooled from three donors, were purchased from Cambrex, and used between passages 3-6. […] For the tumor component, we used B16/F10 melanoma cells as the model cell line, which were stably transfected to express green fluorescent protein. Plasmid expressing enhanced green fluorescent protein (pEGFP-C2, Clontech) was linearized and lipofected (Lipofectamine 2000, Invitrogen) into B16-F10 cells. […] The GFP-B16/F10 cells were regularly cultured in DMEM supplemented with 5% FBS. Sterile glass coverslips (Corning) were coated with matrigel (extracellular matrix extracted from murine Englebreth-Holms sarcoma, diluted 1:3 in phosphate buffer saline; Becton Dickinson) or collagen (type I from rat's tail, Becton Dickinson). Synchronized human umbilical vein endothelial cells were trypsinised and plated on the coverslips at a density of 2×10^4 cells per well. The cells were allowed to adhere for 24 hours in endothelial basal media supplemented with 20% fetal bovine serum. At this time point, the media was replaced with EBM supplemented with 1% serum, and green fluorescent protein-expressing B16/F10 cells were added to the system at a density of 5×10^3 cells per well. The co-culture was allowed to incubate overnight, following which different treatments were added to the media. At 24 hours post-treatment, the cells were fixed in paraformaldehyde (4% on ice, for 20 min), and stained with propidium iodide. The coverslips were mounted with antifade, and analysed with a LSM510 Zeiss confocal microscope. […] Data were expressed as the ratio of each component to the total area covered by cells.

[3] = tested on: B16/F10 melanoma cells and human umbilical vein endothelial cells; experiment: HGF/SF-induced response in co-culture assay on matrigel
Description: as §1

[4] = tested on: B16/F10 melanoma cells and human umbilical vein endothelial cells; experiment: VEGF-induced response in co-culture assay plated on collagen
Description: as §1, with “At this time point, the media was replaced with EBM supplemented with 1% serum, and green fluorescent protein-expressing B16/F10 cells were added to the system at a density of 5×10^3 cells per well. The co-culture was allowed to incubate overnight, following which different treatments were added to the media. At 24 hours post-treatment, the cells were fixed in paraformaldehyde (4% on ice, for 20 min), and stained with propidium iodide.” left out

[5] = tested on: B16/F10 melanoma cells and human umbilical vein endothelial cells; experiment: HGF-induced response in co-culture assay plated on collagen
Description: as §1, with “At this time point, the media was replaced with EBM supplemented with 1% serum, and green fluorescent protein-expressing B16/F10 cells were added to the system at a density of 5×10^3 cells per well. The co-culture was allowed to incubate overnight, following which different treatments were added to the media. At 24 hours post-treatment, the cells were fixed in paraformaldehyde (4% on ice, for 20 min), and stained with propidium iodide.” left out

Row | Compound | vascular network [1] | VEGF-induced angiogenesis / vascular network [2] | effect on tumor cells [2] | HGF/SF-induced response (endothelial network) [3] | other results
1 | VEGF | significant increase in the vascular network |  |  |  | 
2 | HGF/SF: growth factor added to the co-culture | significant increase in the vascular network |  |  |  | 
3 | O=C1CCC(N2C(=O)c3ccccc3C2=O)C(=O)N1 (centres unmarked) [thalidomide] |  | collapse of the VEGF-induced vascular network | without affecting the tumor cells | failed to inhibit the HGF-induced effect | angiogenic effects of VEGF [4]: inhibited the angiogenic effects of VEGF; endothelial cell loss ([5]; HGF/SF): induced endothelial cell loss
4 | Clc1ccc(Nc2nnc(Cc3ccncc3)c3ccccc23)cc1 [PTK787] |  | blocked |  | no effect on the HGF/SF-induced response | 
5 | COc1cccc2c1C(=O)c1c(O)c3c(c(O)c1C2=O)C[C@@](O)(C(=O)CO)C[C@@H]3O[C@H]1C[C@H](N)[C@H](O)[C@H](C)O1 [Doxorubicin] |  |  | selective ablation of the tumor cells in a concentration-dependent manner |  | VEGF-induced endothelial network ([2]; highest concentration used): no effect on the VEGF-induced endothelial network; tumor cell death [3]: selective induction of tumor cell death; tumor cell death ([4]; VEGF-treated co-culture): induced tumor cell death; tumor cell death ([5]; HGF/SF-treated co-culture): induced tumor cell death
